System: potassium channel
Test: potassium channel activating activity: reduction of potassium chloride-induced contractions of rat hepatic portal veins
Conditions: isolated hepatic portal veins, male Sprague-Dawley rats; Krebs solution, 37° C.; further 20 mmol of potassium chloride; isometric tension; read-out: IC50 (concentration of test substance producing a half-maximal reduction of the contractions caused by the potassium chloride)
Description: Hepatic portal veins are removed from male Sprague-Dawley rats and suspended in organ baths under an initial tension of 0.5 g for the isometric recording of tension. The veins are incubated in Krebs solution (consisting of 118 mM of sodium chloride, 25 mM of sodium hydrogen carbonate, 10.5 mM of D-glucose, 4.7 mM of potassium chloride, 0.4 mM of magnesium sulphate, 1.2 mM of potassium dihydrogen phosphate and 2.5 mM of calcium chloride) which is gassed with 95% oxygen and 5% carbon dioxide and maintained at 37° C. After incubation for 0.5 hour to 1 hour a further 20 mmol of potassium chloride is added followed after 0.25 hour to 0.5 hour by increasing concentrations of the test substance. The activity of the test substance is expressed as the IC50 value, which is the concentration of test substance producing a half-maximal reduction of the contractions caused by the potassium chloride.

Row | SMILES | IC50 [nM]
1 | CCC1(C)C=C(c2cccc[n+]2[O-])c2cc(C#N)ccc2O1 (centres unmarked) [Compound G, 2-(6-cyano-2-ethyl-2-methyl-2H-1-benzopyran-4-yl)pyridine N-oxide] | 19 ± 1.2
2 | CC1(C)C=C(c2ccc(-c3ccccc3)c[n+]2[O-])c2cc(C#N)ccc2O1 [Compound E, 2-(6-cyano-2,2-dimethyl-2H-1-benzopyran-4-yl)-5-phenylpyridine N-oxide] | 15 ± 0.5
3 | CC1(C)C=C(c2cccc[n+]2[O-])c2cc(C#N)ccc2O1 [Compound B, 2-(6-cyano-2,2-dimethyl-2H-1-benzopyran-4-yl)pyridine N-oxide] | 38 ± 2
4 | CC1(C)CC(c2cccc[n+]2[O-])c2cc(C#N)ccc2O1 (centres unmarked) [Compound A, 2-(6-cyano-3,4-dihydro-2,2-dimethyl-2H-1-benzopyran-4-yl)pyridine N-oxide] | 160 ± 20
5 | CC(=O)c1ccc2c(c1)C(c1cccc[n+]1[O-])CC(C)(C)O2 (centres unmarked) [Compound D, 2-(6-acetyl-3,4-dihydro-2,2-dimethyl-2H-1-benzopyran-4-yl)pyridine N-oxide] | 560 ± 70
6 | CC1(C)Oc2ccc(C#N)cc2[C@@H](c2cccc[n+]2[O-])[C@@H]1O (racemic) [Compound F, rac-trans-2-(6-cyano-3,4-dihydro-3-hydroxy-2,2-dimethyl-2H-1-benzopyran-4-yl)pyridine N-oxide] | 280 ± 30
7 | CC1(C)CC(c2cccc[n+]2[O-])c2cc([N+](=O)[O-])ccc2O1 (centres unmarked) [Compound C, 2-(3,4-dihydro-2,2-dimethyl-6-nitro-2H-1-benzopyran-4-yl)pyridine N-oxide] | 14 ± 1
8 | CC1(C)C=C(c2cc(C#N)ccc2O)c2cc(C#N)ccc2O1 [Compound H, 4-(5-cyano-2-hydroxyphenyl)-2,2-dimethyl-2H-1-benzopyran-6-carbonitrile] | 3100 ± 800
